Assay [1] relates to Vaccinia virus WR. Nature of the assay: Antiviral activity against Vaccinia virus WR ATCC VR-1354 infected through percutaneous route in BALB/c mouse assessed as inhibition of virus dissemination in blood at 100 mg/kg, po qd for 3 to 14 days by RT-PCR analysis. The format is functional, organism-based. Also noted: dose 100 mg/kg.
In assay [2] the test system is Vaccinia virus WR. As to the kind of experiment: Antiviral activity against Vaccinia virus WR ATCC VR-1354 infected through percutaneous route in BALB/c mouse assessed as reduction of viral load in brain at 100 mg/kg, po qd measured after 13 days postinfection by RT-PCR analysis relative to control. The format is functional, organism-based. Also noted: dose 100 mg/kg.

Assay [3] has as its system Vaccinia virus WR. Nature of the assay: Antiviral activity against Vaccinia virus WR ATCC VR-1354 infected through intravenous route in BALB/c mouse assessed as protection against virus-induced systemic disease symptoms at 100 mg/kg, po qd measured after 9 days postinfection. Also noted: dose 100 mg/kg. The format is functional, organism-based.
The subject of assay [4] is Vaccinia virus WR. Nature of the assay: Antiviral activity against Vaccinia virus WR ATCC VR-1354 infected through dermal scarification route in BALB/c mouse assessed as reduction of viral load in brain at 100 mg/kg, po qd measured after 14 days postinfection by RT-PCR analysis relative to control. The format is functional, organism-based. Also noted: dose 100 mg/kg.
The subject of assay [5] is Vaccinia virus WR. As to the kind of experiment: Antiviral activity against Vaccinia virus WR ATCC VR-1354 infected through percutaneous route in BALB/c mouse assessed as inhibition of virus dissemination in liver at 100 mg/kg, po qd for 3 to 14 days by RT-PCR analysis. The format is functional, organism-based. Also noted: dose 100 mg/kg.
For assay [6], the system named is Vaccinia virus WR. As to the kind of experiment: Antiviral activity against Vaccinia virus WR ATCC VR-1354 infected through percutaneous route in BALB/c mouse assessed as reduction of viral load in brain at 100 mg/kg, po qd measured after 3 days postinfection by RT-PCR analysis relative to control. The format is functional.
The test system of assay [7] is Vaccinia virus WR. As to the kind of experiment: Antiviral activity against Vaccinia virus WR ATCC VR-1354 infected through intravenous route in BALB/c mouse assessed as reduction of viral load in lung at 100 mg/kg, po qd measured after 14 days postinfection by RT-PCR analysis relative to control. Also noted: dose 100 mg/kg. The format is functional, organism-based.

In assay [8] the test system is Vaccinia virus WR. Nature of the assay: Antiviral activity against Vaccinia virus WR ATCC VR-1354 infected through percutaneous route in BALB/c mouse assessed as protection against virus-induced systemic disease symptoms at 100 mg/kg, po qd measured after 6 days postinfection. The format is functional, organism-based. Also noted: dose 100 mg/kg.
Assay [9] relates to Vaccinia virus WR. Nature of the assay: Antiviral activity against Vaccinia virus WR ATCC VR-1354 infected through percutaneous route in BALB/c mouse assessed as inhibition of virus dissemination in liver at 100 mg/kg, po qd for 1 day by RT-PCR analysis. The format is functional, organism-based. Also noted: dose 100 mg/kg.

Data on one compound can be found in ChEMBL document CHEMBL1649270, “ST-246 inhibits in vivo poxvirus dissemination, virus shedding, and systemic disease manifestation” (2009).

The source made the active and inactive calls. The rule behind the calls is not given here.

Take `O=C(NN1C(=O)[C@@H]2[C@@H]3C=C[C@@H]([C@H]4C[C@@H]34)[C@@H]2C1=O)c1ccc(C(F)(F)F)cc1` [TECOVIRIMAT]: the result with Vaccinia virus WR [1], with Vaccinia virus WR [2], in the assay on Vaccinia virus WR [3], with Vaccinia virus WR [4], with Vaccinia virus WR [5] and with Vaccinia virus WR [7] was Active. In addition, the result with Vaccinia virus WR [8] was Active. Further, in the assay with Vaccinia virus WR [6], the “fold change (FC)” value is reported as 1.78. Moreover, the outcome in the assay on Vaccinia virus WR [9] was inactive.
